Experiments:
[1] = target: T1, Serine/threonine-protein kinase Sgk1 (Homo sapiens) (UniProt O00141); assay: Selectivity interaction (Kinase panel (literature)) EUB0001199aCl SGK1; conditions: at 1 µM
T1 sequence (whole entry): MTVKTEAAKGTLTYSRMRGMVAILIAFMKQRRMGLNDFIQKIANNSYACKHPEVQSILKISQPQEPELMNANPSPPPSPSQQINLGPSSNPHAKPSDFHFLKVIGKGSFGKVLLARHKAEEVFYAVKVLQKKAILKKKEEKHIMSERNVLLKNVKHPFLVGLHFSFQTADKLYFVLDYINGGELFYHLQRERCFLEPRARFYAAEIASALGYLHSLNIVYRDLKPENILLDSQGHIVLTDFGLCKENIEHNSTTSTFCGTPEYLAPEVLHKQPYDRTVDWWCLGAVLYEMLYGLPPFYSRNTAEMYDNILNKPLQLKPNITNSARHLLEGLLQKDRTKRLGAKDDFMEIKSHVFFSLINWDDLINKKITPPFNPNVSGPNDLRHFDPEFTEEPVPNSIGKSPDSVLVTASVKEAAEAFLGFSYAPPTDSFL

[2] = test system: Epidermal growth factor receptor (Homo sapiens), P00533 [G719C]; assay: (§1) Selectivity interaction (KinomeScan (DiscoverX)) EUB0000655a EGFR; conditions: at 10 µM
[3] = test system: Epidermal growth factor receptor (Homo sapiens), P00533 [G719S]; assay: as §1; conditions: at 10 µM
Sequence of Epidermal growth factor receptor (Homo sapiens), P00533 [G719S] (P00533 whole entry G719S): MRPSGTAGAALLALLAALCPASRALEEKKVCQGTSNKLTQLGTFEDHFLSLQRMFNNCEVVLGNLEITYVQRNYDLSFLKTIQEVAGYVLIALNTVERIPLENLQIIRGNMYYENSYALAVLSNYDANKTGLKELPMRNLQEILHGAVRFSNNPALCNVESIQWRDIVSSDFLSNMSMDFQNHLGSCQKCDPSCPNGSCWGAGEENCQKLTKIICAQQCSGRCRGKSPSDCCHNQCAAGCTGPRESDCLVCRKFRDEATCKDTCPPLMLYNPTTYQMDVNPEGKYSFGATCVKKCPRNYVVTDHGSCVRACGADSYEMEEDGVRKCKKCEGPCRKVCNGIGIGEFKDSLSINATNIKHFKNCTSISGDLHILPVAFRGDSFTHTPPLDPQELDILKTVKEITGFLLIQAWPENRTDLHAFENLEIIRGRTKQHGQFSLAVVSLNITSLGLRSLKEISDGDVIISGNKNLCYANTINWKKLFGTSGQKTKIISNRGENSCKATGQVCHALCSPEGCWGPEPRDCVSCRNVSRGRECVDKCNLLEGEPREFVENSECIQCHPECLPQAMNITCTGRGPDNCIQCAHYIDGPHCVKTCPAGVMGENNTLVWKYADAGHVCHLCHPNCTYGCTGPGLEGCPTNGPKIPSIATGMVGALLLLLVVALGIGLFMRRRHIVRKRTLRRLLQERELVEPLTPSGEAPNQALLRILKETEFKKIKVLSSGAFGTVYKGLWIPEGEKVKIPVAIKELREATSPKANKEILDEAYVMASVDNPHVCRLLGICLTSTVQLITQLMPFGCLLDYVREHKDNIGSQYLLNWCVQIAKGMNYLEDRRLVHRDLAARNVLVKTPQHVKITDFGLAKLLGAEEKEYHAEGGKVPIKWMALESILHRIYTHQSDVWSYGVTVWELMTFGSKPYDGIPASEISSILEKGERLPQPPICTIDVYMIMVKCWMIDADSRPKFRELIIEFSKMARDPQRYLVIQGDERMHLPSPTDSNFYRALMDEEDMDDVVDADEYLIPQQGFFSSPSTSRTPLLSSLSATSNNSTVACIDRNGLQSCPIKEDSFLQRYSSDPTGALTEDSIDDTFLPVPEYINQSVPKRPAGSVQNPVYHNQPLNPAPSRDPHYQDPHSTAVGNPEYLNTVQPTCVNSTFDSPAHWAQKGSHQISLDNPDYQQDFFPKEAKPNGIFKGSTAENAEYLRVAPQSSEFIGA

[4] = test system: Epidermal growth factor receptor (Homo sapiens), P00533 [L858R,T790M]; assay: as §1; conditions: at 10 µM
[5] = test system: Epidermal growth factor receptor (Homo sapiens), P00533 [L858R]; assay: as §1; conditions: at 10 µM
[6] = test system: Epidermal growth factor receptor (Homo sapiens), P00533 [L861Q]; assay: as §1; conditions: at 10 µM
[7] = test system: Epidermal growth factor receptor (Homo sapiens), P00533 [T790M]; assay: as §1; conditions: at 10 µM
[8] = test system: Epidermal growth factor receptor (Homo sapiens), P00533 [UNDEFINED MUTATION]; assay: as §1; conditions: at 10 µM
[9] = target: Epidermal growth factor receptor (Homo sapiens, UniProt P00533); assay: as §1; conditions: at 10 µM
Sequence of Epidermal growth factor receptor (P00533 whole entry): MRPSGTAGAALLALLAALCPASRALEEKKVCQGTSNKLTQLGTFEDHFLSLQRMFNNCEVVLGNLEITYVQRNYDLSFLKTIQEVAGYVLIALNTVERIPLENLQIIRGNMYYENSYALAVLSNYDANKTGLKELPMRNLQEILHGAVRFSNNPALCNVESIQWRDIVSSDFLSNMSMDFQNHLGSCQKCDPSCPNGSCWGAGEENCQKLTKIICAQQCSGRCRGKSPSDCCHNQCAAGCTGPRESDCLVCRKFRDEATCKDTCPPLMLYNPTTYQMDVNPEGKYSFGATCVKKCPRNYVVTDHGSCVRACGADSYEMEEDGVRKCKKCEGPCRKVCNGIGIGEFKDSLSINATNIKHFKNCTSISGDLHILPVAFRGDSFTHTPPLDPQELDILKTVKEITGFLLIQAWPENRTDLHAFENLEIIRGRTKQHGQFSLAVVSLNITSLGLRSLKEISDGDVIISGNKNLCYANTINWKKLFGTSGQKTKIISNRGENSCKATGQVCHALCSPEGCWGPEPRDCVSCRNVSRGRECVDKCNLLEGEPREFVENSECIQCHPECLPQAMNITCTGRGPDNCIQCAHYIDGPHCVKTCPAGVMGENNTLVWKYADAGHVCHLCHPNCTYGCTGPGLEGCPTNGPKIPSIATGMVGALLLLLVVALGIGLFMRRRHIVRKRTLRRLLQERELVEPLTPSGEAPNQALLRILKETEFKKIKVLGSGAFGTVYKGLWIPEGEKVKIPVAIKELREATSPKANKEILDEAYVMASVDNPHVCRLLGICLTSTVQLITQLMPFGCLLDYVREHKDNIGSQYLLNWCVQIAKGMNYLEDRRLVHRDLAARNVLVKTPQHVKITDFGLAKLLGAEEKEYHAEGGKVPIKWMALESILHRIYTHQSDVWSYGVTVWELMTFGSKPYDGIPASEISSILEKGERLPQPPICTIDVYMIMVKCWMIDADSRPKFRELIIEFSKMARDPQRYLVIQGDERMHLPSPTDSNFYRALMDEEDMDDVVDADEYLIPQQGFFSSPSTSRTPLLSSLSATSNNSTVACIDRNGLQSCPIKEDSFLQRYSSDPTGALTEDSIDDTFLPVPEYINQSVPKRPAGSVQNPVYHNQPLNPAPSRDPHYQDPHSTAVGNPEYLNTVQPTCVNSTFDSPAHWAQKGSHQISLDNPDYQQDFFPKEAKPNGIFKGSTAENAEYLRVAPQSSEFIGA

[10] = target: T2, Atypical kinase COQ8B, mitochondrial (Homo sapiens) (UniProt Q96D53); assay: Selectivity interaction (KinomeScan (DiscoverX)) EUB0001079a ADCK4; conditions: at 1 µM
T2 sequence (whole entry): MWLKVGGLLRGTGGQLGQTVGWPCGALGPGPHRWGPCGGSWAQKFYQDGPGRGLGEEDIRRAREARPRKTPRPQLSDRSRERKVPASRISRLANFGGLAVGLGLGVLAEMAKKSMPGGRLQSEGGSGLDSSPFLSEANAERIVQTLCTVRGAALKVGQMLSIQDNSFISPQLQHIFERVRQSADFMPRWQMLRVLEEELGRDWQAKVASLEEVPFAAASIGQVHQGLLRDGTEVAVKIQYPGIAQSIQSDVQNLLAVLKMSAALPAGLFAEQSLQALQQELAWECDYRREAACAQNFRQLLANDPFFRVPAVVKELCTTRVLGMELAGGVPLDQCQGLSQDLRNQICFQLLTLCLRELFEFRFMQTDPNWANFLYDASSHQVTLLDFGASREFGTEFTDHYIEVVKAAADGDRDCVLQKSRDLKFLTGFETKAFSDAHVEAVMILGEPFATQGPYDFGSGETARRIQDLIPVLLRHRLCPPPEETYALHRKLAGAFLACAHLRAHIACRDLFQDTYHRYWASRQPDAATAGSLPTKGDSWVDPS

[11] = target: Phosphatidylinositol 4,5-bisphosphate 3-kinase catalytic subunit beta isoform (Homo sapiens) (UniProt P42338); assay: Selectivity interaction (KinomeScan (DiscoverX)) EUB0001079a PIK3CB; conditions: at 1 µM
Sequence of Phosphatidylinositol 4,5-bisphosphate 3-kinase catalytic subunit beta isoform (Homo sapiens) (P42338 whole entry, looked up, canonical isoform): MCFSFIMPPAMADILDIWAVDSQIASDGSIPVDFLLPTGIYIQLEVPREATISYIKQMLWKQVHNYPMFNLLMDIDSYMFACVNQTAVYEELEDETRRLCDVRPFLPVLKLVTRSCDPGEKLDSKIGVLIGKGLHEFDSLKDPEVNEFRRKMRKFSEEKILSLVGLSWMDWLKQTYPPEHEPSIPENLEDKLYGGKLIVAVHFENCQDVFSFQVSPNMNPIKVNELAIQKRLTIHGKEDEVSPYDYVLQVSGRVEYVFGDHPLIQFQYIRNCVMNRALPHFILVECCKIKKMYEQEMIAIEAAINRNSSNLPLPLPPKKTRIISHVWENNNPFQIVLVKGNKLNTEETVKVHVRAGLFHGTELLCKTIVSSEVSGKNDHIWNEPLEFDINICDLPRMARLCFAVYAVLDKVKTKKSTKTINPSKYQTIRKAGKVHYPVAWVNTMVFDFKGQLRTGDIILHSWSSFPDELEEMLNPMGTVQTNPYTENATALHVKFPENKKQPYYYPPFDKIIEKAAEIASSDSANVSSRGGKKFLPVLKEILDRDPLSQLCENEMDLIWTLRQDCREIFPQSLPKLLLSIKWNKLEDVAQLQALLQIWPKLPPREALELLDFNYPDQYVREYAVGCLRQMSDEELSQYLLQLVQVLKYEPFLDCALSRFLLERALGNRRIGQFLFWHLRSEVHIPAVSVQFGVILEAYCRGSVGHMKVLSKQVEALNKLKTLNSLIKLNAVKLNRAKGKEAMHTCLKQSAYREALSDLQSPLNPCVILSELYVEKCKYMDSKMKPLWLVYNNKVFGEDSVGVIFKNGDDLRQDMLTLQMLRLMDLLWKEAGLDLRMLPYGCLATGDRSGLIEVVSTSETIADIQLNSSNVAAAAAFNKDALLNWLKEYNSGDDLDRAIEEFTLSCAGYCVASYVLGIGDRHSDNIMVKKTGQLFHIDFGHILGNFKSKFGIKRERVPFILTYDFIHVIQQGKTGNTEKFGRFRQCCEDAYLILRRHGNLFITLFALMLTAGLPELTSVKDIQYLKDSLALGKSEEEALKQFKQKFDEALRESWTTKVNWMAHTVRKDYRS

[12] = target: T3, Serine/threonine-protein kinase Nek11 (Homo sapiens) (UniProt Q8NG66); assay: Selectivity interaction (KinomeScan (DiscoverX)) EUB0000607a NEK11; conditions: at 10 µM
T3 sequence (whole entry): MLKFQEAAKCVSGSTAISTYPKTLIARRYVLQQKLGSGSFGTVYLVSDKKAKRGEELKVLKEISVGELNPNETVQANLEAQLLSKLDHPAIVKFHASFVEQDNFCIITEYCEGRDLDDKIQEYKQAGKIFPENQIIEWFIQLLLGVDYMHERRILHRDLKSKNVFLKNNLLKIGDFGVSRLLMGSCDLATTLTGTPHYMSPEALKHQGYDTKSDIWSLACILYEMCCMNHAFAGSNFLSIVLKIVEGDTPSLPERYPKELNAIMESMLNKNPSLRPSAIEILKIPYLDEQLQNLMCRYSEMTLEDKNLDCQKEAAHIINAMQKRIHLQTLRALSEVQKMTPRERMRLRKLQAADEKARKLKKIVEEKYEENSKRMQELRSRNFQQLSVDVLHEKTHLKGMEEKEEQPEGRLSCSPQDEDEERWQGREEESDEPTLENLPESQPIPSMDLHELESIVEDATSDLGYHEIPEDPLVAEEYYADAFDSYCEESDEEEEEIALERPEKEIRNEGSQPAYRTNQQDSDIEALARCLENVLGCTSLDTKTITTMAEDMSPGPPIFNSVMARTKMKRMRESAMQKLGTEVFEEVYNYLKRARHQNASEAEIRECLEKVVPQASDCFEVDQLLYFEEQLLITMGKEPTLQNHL

[13] = target: T4, Dual specificity mitogen-activated protein kinase kinase 6 (Homo sapiens) (UniProt P52564); assay: Selectivity interaction (KinomeScan (DiscoverX)) EUB0000595a MAP2K6; conditions: at 10 µM
T4 sequence (whole entry): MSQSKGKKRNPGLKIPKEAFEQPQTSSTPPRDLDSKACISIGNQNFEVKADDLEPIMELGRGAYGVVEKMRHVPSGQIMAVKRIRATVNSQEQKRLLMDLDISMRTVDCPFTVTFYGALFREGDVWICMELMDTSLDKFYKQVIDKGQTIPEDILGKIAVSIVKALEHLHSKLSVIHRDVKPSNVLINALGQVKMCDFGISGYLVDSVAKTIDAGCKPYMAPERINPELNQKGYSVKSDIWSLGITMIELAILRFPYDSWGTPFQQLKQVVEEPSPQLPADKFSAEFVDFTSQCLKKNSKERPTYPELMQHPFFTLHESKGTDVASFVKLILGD

[14] = target: Calcium/calmodulin-dependent protein kinase type II subunit delta (Homo sapiens) (UniProt Q13557); conditions: at 10 µM
[15] = target: Calcium/calmodulin-dependent protein kinase type II subunit gamma (Homo sapiens) (UniProt Q13555); assay: Selectivity interaction (ProQinase) EUB0000171b CAMK2G
Sequence of Calcium/calmodulin-dependent protein kinase type II subunit gamma (Homo sapiens) (Q13555 whole entry, canonical isoform): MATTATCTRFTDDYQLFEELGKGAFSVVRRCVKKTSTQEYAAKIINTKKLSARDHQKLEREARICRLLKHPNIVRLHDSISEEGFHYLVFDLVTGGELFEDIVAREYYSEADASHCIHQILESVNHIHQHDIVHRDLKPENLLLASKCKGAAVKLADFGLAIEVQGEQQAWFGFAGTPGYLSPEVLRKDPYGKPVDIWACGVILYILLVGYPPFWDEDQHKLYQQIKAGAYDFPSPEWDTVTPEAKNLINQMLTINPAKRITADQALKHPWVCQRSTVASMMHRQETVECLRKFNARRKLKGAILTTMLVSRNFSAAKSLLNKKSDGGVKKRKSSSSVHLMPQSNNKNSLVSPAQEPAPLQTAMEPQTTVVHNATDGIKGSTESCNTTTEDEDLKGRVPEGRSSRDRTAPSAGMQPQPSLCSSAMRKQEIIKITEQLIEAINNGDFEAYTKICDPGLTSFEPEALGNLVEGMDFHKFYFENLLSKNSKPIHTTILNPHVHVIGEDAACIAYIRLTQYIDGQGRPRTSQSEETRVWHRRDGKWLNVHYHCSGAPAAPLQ

[16] = target: Casein kinase I isoform epsilon (Homo sapiens, UniProt P49674); assay: Selectivity interaction (KinomeScan (DiscoverX)) EUB0000666a CSNK1E; conditions: at 10 µM
Sequence of Casein kinase I isoform epsilon (P49674 whole entry, looked up, canonical isoform): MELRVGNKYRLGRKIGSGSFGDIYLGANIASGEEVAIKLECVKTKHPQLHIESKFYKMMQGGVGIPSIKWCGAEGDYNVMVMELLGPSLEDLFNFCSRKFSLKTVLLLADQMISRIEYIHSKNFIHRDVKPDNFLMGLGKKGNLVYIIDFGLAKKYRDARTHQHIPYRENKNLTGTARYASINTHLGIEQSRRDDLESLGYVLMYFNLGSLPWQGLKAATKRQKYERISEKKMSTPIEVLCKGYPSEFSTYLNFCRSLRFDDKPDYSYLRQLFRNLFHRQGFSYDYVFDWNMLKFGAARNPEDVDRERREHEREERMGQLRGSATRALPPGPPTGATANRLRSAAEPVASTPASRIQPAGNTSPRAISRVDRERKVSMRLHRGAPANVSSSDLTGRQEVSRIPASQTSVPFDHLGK

[17] = target: Serine/threonine-protein kinase PAK 3 (Homo sapiens) (UniProt O75914); assay: Selectivity interaction (Kinase screening (Nanosyn)) EUB0000604a PAK3
[18] = target: SRSF protein kinase 3 (Homo sapiens) (UniProt Q9UPE1); assay: Selectivity interaction (KinomeScan (DiscoverX)) EUB0000695a SRPK3; conditions: at 100 nM
Sequence of SRSF protein kinase 3 (Homo sapiens) (Q9UPE1 whole entry): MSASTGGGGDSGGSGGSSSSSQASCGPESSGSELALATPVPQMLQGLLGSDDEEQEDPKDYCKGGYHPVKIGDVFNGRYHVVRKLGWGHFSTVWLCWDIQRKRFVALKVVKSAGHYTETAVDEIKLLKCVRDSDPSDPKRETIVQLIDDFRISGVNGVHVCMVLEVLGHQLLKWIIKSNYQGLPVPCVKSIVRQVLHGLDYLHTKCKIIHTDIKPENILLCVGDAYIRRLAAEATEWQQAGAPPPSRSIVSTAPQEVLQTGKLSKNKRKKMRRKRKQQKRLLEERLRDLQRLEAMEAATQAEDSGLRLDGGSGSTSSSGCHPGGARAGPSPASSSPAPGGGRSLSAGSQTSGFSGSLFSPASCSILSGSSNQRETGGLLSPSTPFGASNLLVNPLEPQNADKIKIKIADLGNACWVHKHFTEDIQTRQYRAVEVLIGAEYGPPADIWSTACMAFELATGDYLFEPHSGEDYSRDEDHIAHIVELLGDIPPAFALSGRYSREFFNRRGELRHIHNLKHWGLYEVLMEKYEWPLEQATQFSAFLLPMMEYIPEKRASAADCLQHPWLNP

SMILES: CN1Cc2nccc(-c3cn(C)nc3-c3ccc(F)cc3)c2C1=O
- % of inhibition [1]: 2%

SMILES: CN(C)CCOc1ccc(-c2nc(-c3ccncc3)c(-c3ccc4c(c3)CC/C4=N\O)[nH]2)cc1
- % of control [2]: 59%
- % of control [3]: 70%
- % of control [4]: 93%
- % of control [5]: 54%
- % of control [6]: 34%
- % of control [7]: 34%
- % of control [8]: 100%
- % of control [9]: 95%

SMILES: Nc1cnc(N2CCc3cc(S(=O)(=O)Nc4c(F)cc(Cl)cc4F)cc(N4CCCC4=O)c32)nc1 [TP-020n]
- % of control [10]: 100%
- % of control [11]: 87%

SMILES: CNC(=O)Nc1ccc(-c2nc(N3CC4CCC(C3)O4)c3cnn(C4CCC5(CC4)OCCO5)c3n2)cc1
- % of control [12]: 99%

SMILES: COCC(=O)NC/C=C/c1ccc2ncnc(Nc3ccc(Oc4ccc(C)nc4)c(C)c3)c2c1 [CP-724714]
- % of control [13]: 93%

SMILES: Cc1cc([C@@H](C)Nc2ccccc2C(=O)O)c2nc(N3CCOCC3)cc(=O)n2c1 [AZD-6482]
- % of control [14]: 95%

SMILES: C=CC(=O)Nc1cccc(C(=O)Nc2ccc(Nc3cc(-c4[nH]c(SC)nc4C)ccn3)cc2)c1
- % of control ([15]; at 1 µM): 81%
- % of control ([15]; at 5 µM): 54%

SMILES: O=C(NOC[C@H](O)CO)c1ccc(F)c(F)c1Nc1ccc(I)cc1F
- % of control [16]: 100%

SMILES: Cc1cnc(Nc2ccc(F)cc2Cl)nc1-c1c[nH]c(C(=O)N[C@H](CO)c2cccc(Cl)c2)c1
- % of inhibition [17]: 3%

SMILES: Cc1cc(F)c(C(=O)Nc2cccc(-c3nncn3C(C)C)n2)cc1-n1cnc(C2CC2)c1
- % of control [18]: 100%

Source: ChEMBL document CHEMBL5465560, “Selectivity Literature for EUbOPEN Chemogenomic Library” (2024)
